# Laboratory results from patent publication US20160081338A1, “PLANT GROWTH ACCELERATOR” (Nippon Soda Co., Ltd., priority 2012, published 2016).
# What was measured:
# [1] = test system: rice seeds (variety: Koshihikari); assay: Test on acceleration of rice root growth and effect of growing vigourous seedlings; type: in vivo; conditions: for Seminal Root Length: paper filter, 25° C.
# Description: A paper filter was spread in a plastic cup and impregnated with 10 ml of each of the chemical solutions prepared in Example 1 or Comparative Example 1. In non-treatment, water was used in place of the chemical solutions. In treatment plots, 1 replication was provided for each concentration; in the non-treatment plots, 2 replications were provided. Ten rice seeds (variety: Koshihikari) were sown on each plot of the paper filter and cultivated in a growth chamber at 25° C., and the length of roots was measured after 5 and 7 days. The average of measured values excluding the maximum and minimum values was calculated. The ratio (%) of the average value in each treatment plot to the average value in the non-treatment plots was calculated.
# [2] = test system: cucumber (Variety:Sagamihanjiro-fushinari); assay: Test on acceleration of growth of aboveground/underground part of cucumber and effect of growing vigourous seedlings; type: in vivo; conditions: after 7 days, dilution 708, active ingredient 250 ppm
# Description: Seedling-raising culture soil for gardening was placed in a 12 -cm-by-20 -cm plastic pot 10 cm in depth, and 5 seeds of cucumber (Variety:Sagamihanjiro-fushinari) were sown in the soil. Thereinto was uniformly irrigated 500 ml of each chemical solution prepared in Example 1 or Comparative Example 1. Water was used in place of each chemical solution in the non-treatment plots. Each plot has 3 replications. The above-ground and underground parts of the seedlings germinated and grown after 7 days were measured for length. The ratio (%) of the average value in each treatment plot to the average value in the non-treatment plot was calculated.
# [3] = After 5 Days, dilution 708, active ingredient 250 ppm
# [4] = After 5 Days, dilution 2832, active ingredient 62.5 ppm
# [5] = After 5 Days, dilution 11328, active ingredient 15.6 ppm
# [6] = After 7 Days, dilution 2832, active ingredient 62.5 ppm
# [7] = After 7 Days, dilution 11328, active ingredient 15.6 ppm
compound,measurement,setting,value
"Cc1c(Br)c2ccc(F)cc2n1S(=O)(=O)c1ncn(S(=O)(=O)N(C)C)n1 [Amisulbrom, 3-(3-bromo-6-fluoro-2-methylindol-1-ylsulfonyl)-N,N-dimethyl-1H-1,2,4-triazole-1-sulfonamide]",Seminal Root Length To Non-treatment,[1]; [3],120%
same,Seminal Root Length,[1]; [3],2.46 cm
same,Seminal Root Length To Non-treatment,[1]; [4],139%
same,Seminal Root Length,[1]; [4],2.85 cm
same,Seminal Root Length To Non-treatment,[1]; [5],129%
same,Seminal Root Length,[1]; [5],2.65 cm
same,Seminal Root Length,"[1]; After 7 Days, dilution 708, active ingredient 250 ppm",2.91 cm
same,Seminal Root Length To Non-treatment,[1]; [6],176%
same,Seminal Root Length,[1]; [6],4.04 cm
same,Seminal Root Length To Non-treatment,[1]; [7],154%
same,Seminal Root Length,[1]; [7],3.53 cm
same,Seminal Root Length To Non-treatment,"[1]; after 7 days, dilution 708, active ingredient 250 ppm",127%
same,Above-ground Part Length To Non-treatment,[2],108%
same,Under-ground Part Length To Non-treatment,[2],117%
same,Above-ground Part Length,[2]; 500 ml irrigated into soil,2.2 cm
same,Under-ground Part Length,[2]; 500 ml irrigated into soil,4.3 cm
